Experimental findings from patent US9181186B2, “Aromatic ring compound” (TAKEDA PHARMACEUTICAL COMPANY LIMITED, priority 2012, dated 2015) are described below.

The target of this test is T1, human GPR40 (Homo sapiens, UniProt O14842).
T1 construct: expressed in transfected cells
T1 sequence (O14842 whole entry): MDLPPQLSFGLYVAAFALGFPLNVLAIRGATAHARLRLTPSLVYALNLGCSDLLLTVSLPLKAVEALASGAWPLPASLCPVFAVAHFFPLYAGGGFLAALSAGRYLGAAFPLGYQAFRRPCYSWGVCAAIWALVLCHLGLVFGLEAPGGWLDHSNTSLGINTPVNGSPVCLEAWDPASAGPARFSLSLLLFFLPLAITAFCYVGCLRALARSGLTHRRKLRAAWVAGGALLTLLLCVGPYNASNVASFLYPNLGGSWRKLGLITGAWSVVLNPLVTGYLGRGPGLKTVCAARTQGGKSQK
The test can be described thus: Evaluation of human GPR40 agonist activity with increase in intracellular Ca2+ concentration as an index (FLIPR Tetra). It counts as cell-based. Conditions: test compound 1 μM; CHO(dhfr−) cells stably expressing human GPR40; 100% = 1 μM WO2009/048527 Example 99.2, 0% = DMSO. The procedure:
Evaluation of Human GPR40 Agonist Activity with Increase in Intracellular Ca^2+ Concentration as an Index
CHO(dhfr−) cells that stably expressed human GPR40 were suspended in MEMα (Nikken Bio Medical Laboratory) containing 10% dialysis serum (GEMINI BIO-PRODUCTS), 10 mM HEPES (Invitrogen), 100 U/mL penicillin, 100 μg/mL streptomycin (Invitrogen), and plated on a 384 well black/clear cell culture plate at 10,000 cells/well. After culture overnight in a CO2 incubator at 37° C., the culture supernatant was removed, and a loading buffer [dye attached to Calcium 5 Assay Kit (Molecular Devices) was dissolved in an assay buffer (20 mM HEPES, 0.2% fatty acid-free BSA (Sigma-Aldrich), 2.5 mM probenecid (DOJINDO)-containing HBSS (Invitrogen)) added with 0.025% Cremophor EL (DOJINDO)] was added at 37.5 μL/well. After incubation in a CO2 incubator at 37° C. for 1 hr, the cells were stood at room temperature for 15 min, an assay buffer containing the test compound at a final concentration of 1 μM was added at 12.5 μL/well in FLIPR Tetra (Molecular Devices), and the fluorescence amount was successively measured. Human GPR40 agonist activity calculated using an increase in the intracellular Ca^2+ concentration as an index, wherein the activity of 1 μM of the compound described in WO 2009/048527 (WO2009/048527 Example 99.2) was 100%, and the activity when DMSO was added instead of the test compound was 0%.
Regarding `COc1ccc(F)c(-c2ccc(COc3cc(F)cc(CCC(=O)O)c3)nc2CC(C)(C)C)c1` [Example 16, 3-(3-((6-(2,2-dimethylpropyl)-5-(2-fluoro-5-methoxyphenyl)pyridin-2-yl)methoxy)-5-fluorophenyl)propanoic acid], the activation at 1 µM is 109%.
On the same count and under the same terms, for `COc1ccc(F)c(-c2ccc(COc3cccc(CCC(=O)O)c3)nc2CC(C)(C)C)c1` [Example 29, 3-(3-((6-(2,2-dimethylpropyl)-5-(2-fluoro-5-methoxyphenyl)pyridin-2-yl)methoxy)phenyl)propanoic acid] the value was 103%; for `COc1ccc(F)c(-c2ccc(COc3cccc(CCC(=O)O)c3F)nc2CC(C)(C)C)c1` [Example 22, 3-(3-((6-(2,2-dimethylpropyl)-5-(2-fluoro-5-methoxyphenyl)pyridin-2-yl)methoxy)-2-fluorophenyl)propanoic acid], 103%.
Same read-out and setting: with `COc1ccc(F)c(-c2ccc(COc3ccc(F)c(CCC(=O)O)c3)nc2CC(C)(C)C)c1` [Example 19, 3-(5-((6-(2,2-dimethylpropyl)-5-(2-fluoro-5-methoxyphenyl)pyridin-2-yl)methoxy)-2-fluorophenyl)propanoic acid] the figure was 109%; with `COc1ccc(F)c(-c2ccc(COc3ccc(C)c(CCC(=O)O)c3)nc2CC(C)(C)C)c1` [Example 17, 3-(5-((6-(2,2-dimethylpropyl)-5-(2-fluoro-5-methoxyphenyl)pyridin-2-yl)methoxy)-2-methylphenyl)propanoic acid], 109%; with `COc1ccc(F)c(-c2ncc(COc3cccc(C(CC(=O)O)C4CC4)c3)cc2CC(C)(C)C)c1` (stereo not drawn) [Example 34, 3-cyclopropyl-3-(3-((5-(2,2-dimethylpropyl)-6-(2-fluoro-5-methoxyphenyl)pyridin-3-yl)methoxy)phenyl)propanoic acid], 118%.
The same measure, in the same setting: with `COc1ccc(F)c(-c2ncc(COc3cc(C(CC(=O)O)C4CC4)ncn3)cc2OCC(C)C)c1` (stereo not drawn) [Example 32, 3-cyclopropyl-3-(6-((6-(2-fluoro-5-methoxyphenyl)-5-isobutoxypyridin-3-yl)methoxy)pyrimidin-4-yl)propanoic acid] the figure was 104%; with `COc1ccc(F)c(-c2ccc(COc3cccc(C(CC(=O)O)C4CC4)c3)nc2CC(C)(C)C)c1` (stereo not drawn) [Example 11, 3-cyclopropyl-3-(3-((6-(2,2-dimethylpropyl)-5-(2-fluoro-5-methoxyphenyl)pyridin-2-yl)methoxy)phenyl)propanoic acid], 100%.
Regarding `COc1ccc(F)c(-c2ncc(COc3cc(C(CC(=O)O)C4CC4)ncn3)cc2CC(C)(C)C)c1` (stereo not drawn) [Example 35, 3-cyclopropyl-3-(6-((5-(2,2-dimethylpropyl)-6-(2-fluoro-5-methoxyphenyl)pyridin-3-yl)methoxy)pyrimidin-4-yl)propanoic acid], the activation at 1 µM came out at 101%.
Still for that read-out and setting: with `COc1ccc(F)c(-c2ccc(COc3cc(C)cc(CCC(=O)O)c3)nc2CC(C)(C)C)c1` [Example 23, Sodium 3-(3-((6-(2,2-dimethylpropyl)-5-(2-fluoro-5-methoxyphenyl)pyridin-2-yl)methoxy)-5-methylphenyl)propanoate] the figure was 99%.
`COc1ccc(F)c(-c2ccc(COc3cc(C(CC(=O)O)C4CC4)ccc3OC)nc2CC(C)(C)C)c1` (stereo not drawn) [Example 12, 3-cyclopropyl-3-(3-((6-(2,2-dimethylpropyl)-5-(2-fluoro-5-methoxyphenyl)pyridin-2-yl)methoxy)-4-methoxyphenyl)propanoic acid] registered an activation at 1 µM of 112%.
Same read-out and setting: for `COc1ccc(F)c(-c2cnc(COc3cc(C(CC(=O)O)C4CC4)ncn3)nc2OCC(C)C)c1` (stereo not drawn) [Example 41, 3-cyclopropyl-3-(6-((5-(2-fluoro-5-methoxyphenyl)-4-isobutoxypyrimidin-2-yl)methoxy)pyrimidin-4-yl)propanoic acid] the value was 110%.
Same read-out and setting: with `COc1ccc(F)c(-c2ccc(COc3ccc(OC)c(CCC(=O)O)c3)nc2CC(C)(C)C)c1` [Example 18, 3-(5-((6-(2,2-dimethylpropyl)-5-(2-fluoro-5-methoxyphenyl)pyridin-2-yl)methoxy)-2-methoxyphenyl)propanoic acid] the figure was 109%; with `COc1ccc(F)c(-c2ccc(COc3cc(C(CC(=O)O)C4CC4)ncn3)nc2OCC(C)C)c1` (stereo not drawn) [Example 2, 3-cyclopropyl-3-(6-((5-(2-fluoro-5-methoxyphenyl)-6-isobutoxypyridin-2-yl)methoxy)pyrimidin-4-yl)propanoic acid], 107%; with `COc1ccc(F)c(-c2ccc(COc3cccc(C(CC(=O)O)C4CC4)c3)nc2OCC(C)C)c1` (stereo not drawn) [Example 1, 3-cyclopropyl-3-(3-((5-(2-fluoro-5-methoxyphenyl)-6-isobutoxypyridin-2-yl)methoxy)phenyl)propanoic acid], 100%.
In the case of `COc1ccc(F)c(-c2ncc(COc3cc(C(CC(=O)O)C4CC4)c(F)cn3)cc2CC2(C#N)CCCC2)c1` (stereo not drawn) [Example 44, 3-(2-((5-((1-cyanocyclopentyl)methyl)-6-(2-fluoro-5-methoxyphenyl)pyridin-3-yl)methoxy)-5-fluoropyridin-4-yl)-3-cyclopropylpropanoic acid], the “Human GPR40 agonist activity (increase in intracellular Ca2+ concentration)” value was determined as 107%.
The compound `COc1cc(CCC(=O)O)cc(OCc2ccc(-c3cc(OC)ccc3F)c(CC(C)(C)C)n2)c1` [Example 15, 3-(3-((6-(2,2-dimethylpropyl)-5-(2-fluoro-5-methoxyphenyl)pyridin-2-yl)methoxy)-5-methoxyphenyl)propanoic acid] yielded an activation at 1 µM of 103%.
The same measure, in the same setting: for `COc1ccc(F)c(-c2ncc(COc3cc(C(CC(=O)O)C4CC4)ncn3)cc2OCCC(F)(F)F)c1` (stereo not drawn) [Example 37, 3-cyclopropyl-3-(6-((6-(2-fluoro-5-methoxyphenyl)-5-(3,3,3-trifluoropropoxy)pyridin-3-yl)methoxy)pyrimidin-4-yl)propanoic acid] the value was 101%.
Regarding `COc1ccc(F)c(-c2ccc(COc3cc(C(CC(=O)O)C4CC4)ncn3)nc2CC(C)(C)C)c1` (stereo not drawn) [Example 8, 3-cyclopropyl-3-(6-((6-(2,2-dimethylpropyl)-5-(2-fluoro-5-methoxyphenyl)pyridin-2-yl)methoxy)pyrimidin-4-yl)propanoic acid], the activation at 1 µM stood at 106%.
Still for that read-out and setting: with `COc1ccc(F)c(-c2ccc(COc3cc(C(CC(=O)O)C4CC4)c(F)cn3)nc2CC(C)(C)C)c1` (stereo not drawn) [Example 42, 3-cyclopropyl-3-(5-fluoro-2-((5-(2-fluoro-5-methoxyphenyl)-6-neopentylpyridin-2-yl)methoxy)pyridin-4-yl)propanoic acid] the figure was 115%.
On the same count and under the same terms, for `COc1ccc(F)c(-c2ccc(COc3cc(C(CC(=O)O)C4CC4)ccn3)nc2CC(C)(C)C)c1` (stereo not drawn) [Example 30, 3-cyclopropyl-3-(2-((6-(2,2-dimethylpropyl)-5-(2-fluoro-5-methoxyphenyl)pyridin-2-yl)methoxy)pyridin-4-yl)propanoic acid] the value was 112%; for `COc1ccc(F)c(-c2ncc(COc3cc(C(CC(=O)O)C4CC4)ccn3)cc2CC(C)(C)C)c1` (stereo not drawn) [Example 40, 3-cyclopropyl-3-(2-((5-(2,2-dimethylpropyl)-6-(2-fluoro-5-methoxyphenyl)pyridin-3-yl)methoxy)pyridin-4-yl)propanoic acid], 113%.
As for `COc1ccc(F)c(-c2ccc(COc3cccc(C(CC(=O)O)C4CC4)c3)nc2CC(C)(C)C)c1` (single isomer, unassigned) [Example 7, 3-cyclopropyl-3-(3-((6-(2,2-dimethylpropyl)-5-(2-fluoro-5-methoxyphenyl)pyridin-2-yl)methoxy)phenyl)propanoic acid], the “Human GPR40 agonist activity (increase in intracellular Ca2+ concentration)” value is 106%.
Consider `COc1ccc(F)c(-c2cnc(COc3cc(C(CC(=O)O)C4CC4)ncn3)cc2OCC(C)C)c1` (stereo not drawn) [Example 6, 3-cyclopropyl-3-(6-((5-(2-fluoro-5-methoxyphenyl)-4-isobutoxypyridin-2-yl)methoxy)pyrimidin-4-yl)propanoic acid], for which the activation at 1 µM was 98%.
On the same count and under the same terms, for `COc1ccc(F)c(-c2ncc(COc3cccc(C(CC(=O)O)C4CC4)c3)cc2OCC(C)C)c1` (stereo not drawn) [Example 31, 3-cyclopropyl-3-(3-((6-(2-fluoro-5-methoxyphenyl)-5-isobutoxypyridin-3-yl)methoxy)phenyl)propanoic acid] the value was 104%; for `COc1ccc(F)c(-c2ncc(COc3cc(C(CC(=O)O)C4CC4)c(F)cn3)cc2CC2(C#N)CCCC2)c1` (stereo not drawn) [Example 43, 3-(2-((5-((1-cyanocyclopentyl)methyl)-6-(2-fluoro-5-methoxyphenyl)pyridin-3-yl)methoxy)-5-fluoropyridin-4-yl)-3-cyclopropylpropanoic acid], 115%; for `COc1ccc(F)c(-c2ncc(COc3cc(C(CC(=O)O)C4CC4)ncn3)cc2OCC(C)(C)C)c1` (stereo not drawn) [Example 36, 3-cyclopropyl-3-(6-((5-(2,2-dimethylpropoxy)-6-(2-fluoro-5-methoxyphenyl)pyridin-3-yl)methoxy)pyrimidin-4-yl)propanoic acid], 106%.
